Laboratory results: patent US20240057599A1, “METHODS FOR IMPROVING FRUIT QUALITY” (The State of Israel, Ministry of Agriculture & Rural …, priority 2021, published 2024)

How the values were obtained:
Format in all cases: in vivo
[1] = test system: Mango (Tali) fruits; assay: Aroma-associated VOC levels in dipped mango fruits; conditions: pulp; dipped in 8 mM; 11 days at 22° C.; vs non-treated
Protocol: FIGS. 30A-30G include vertical bar graphs showing that a […] treatment of mango fruits with 8 mM phenylalanine increases the levels of aroma-associated VOCs. Mango (Tali) fruits were dipped in 8 mM phenylalanine and after 11 days of storage at 22° C. the profile of volatiles in the fruit […] was examined. Concentration of the following volatile aroma substances was examined (presented as μg/gFW): (30A) α-Pinene; (30B) 3-Carene; (30C) D-Limonene; (30D) Gurjunene; (30E) α-Terpinolene; (30F) α-Phellandrene; and (30G) Caryophyllene. Further, the inventors have shown that postharvest treatment as disclosed herein improves fruit aroma. The investors have dipped Mango fruits, and 11 days after storage at 22° C., the levels of aroma-associated VOCs were determined. Indeed, postharvest treatment with an effective amount of phenylalanine induced a significant increase in the levels of all tested VOCs (FIG. 30).

[2] = test system: apple fruits (Jonathan); assay: Red coloration of apple fruits after preharvest treatment; conditions: 8 mM, 1 or 2 weeks preharvest
Protocol: (§1) Mango or apple trees were treated 1 week or 2 weeks pre-harvest with either 8 mM of phenylalanine or with 0.2% prohydrojasmon ('blush'). Fruits were harvested from the external area of the tree, wherein fruits are exposed to the sunlight (photon flux of 1,500±200 μmol·m^-2 sec^-1). After harvest: (a) mango fruits were stored for 3 weeks at 12° C., and for another week at 22° C. (e.g., shelf life); and (b) apple fruits were stored for 3 months at 0° C., and for another week at 22° C. (e.g., shelf life). Surface area of the red color was evaluated as percentage, and red intensity was evaluated on a scale of 0-5. Each mango fruit was assessed for percentage of red surface area on fruit for each treatment at different time points (harvest, after cold storage at 12° C. and after shelf life at 22° C.). Similarly, red intensity was evaluated for each mango fruit using a visual rating scale, where 0=no red color, 1=faint red color, and 5=very intense red color. Fifty fruit were evaluated per treatment. The skin color (hue) of 15 mango fruit was measured for each treatment using a CR-400/410 Chromometer (Konicka Minolta, Osaka, Japan) on the equatorial line of each fruit at the […] point. […] Chlorophyll, anthocyanin, and flavonoid content were measured by the Multiplex III fluorescence detector (Force A, Orsay, France), which consists of 12 fluorescence signals. […]

[3] = test system: Red (Memphis) and white (Sifra) potato tubers; assay: Scratch curing in potato tuber; conditions: for scratch curing (scale of 0-3): 8 mM dip 1 min
Protocol: Red (Memphis) and white (Sifra) potato tubers were dipped in water or 8 mM Phe for 1 min, and dried. The tubers were stored at 20° C. for 2 days. Each tuber was scratched (2 cm length, and 1 cm wide) in 3 spots. One week and 2 weeks later the curing of the scratch was evaluated on a scale of 0-3, the recovery of the red color was evaluated on a scale of 0-3, and the weight loss was measured.

[4] = test system: mango fruits; assay: Sensory analysis by a panel of 20 tasters, mango fruits and juice; conditions: for quality of juice extracted from mango fruits: preharvest application, 2020
Protocol: (§2) Mango—unripe Mango fruits were harvested and dipped in 4-8 mM phenylalanine for a period of 30 seconds. Fruits were stored at 22° C. until ripening (Days 11-15), wherein sensory analysis by a panel of 20 tasters was performed. Further, Brix, and % acidity (calibrated according to citric acid), and firmness (by Newton units) values were determined in 5 different fruits.

[5] = test system: Mango (Shelly) fruits; assay: Preharvest spray, red coloration and TSS in mango
Source text: FIGS. 26A-26C include vertical bar graphs showing the effect of preharvest spray treatment on red coloration and TSS in Mango (Shelly) fruits. Red color surface (%; 26A), red color intensity (26B) and TSS (% Brix; 26C) were examined under preharvest treatments with 0.01%, 0.06%, […], or 0.24% phenylalanine (Phe).
(§3) Further, improvement of fruit coloration was also shown in grapes (FIG. 28).

[6] = test system: Starking and Anna apples; assay: Enzymatic browning of sliced apple fruits after preharvest treatment; conditions: 0.12%
Source text: FIGS. 29A-29E include micrographs showing the effect of preharvest treatment on decay parameters in Starking (29A-29B) and Anna (29C-29E) apples. In control fruits, enzymatic browning (i.e., oxidation) was highly evident (29A, and 29C).
Further, the inventors have examined the effect of preharvest treatment with phenylalanine on enzymatic browning, i.e., oxidation, in a fruit.

[7] = test system: mango fruits; assay: Brix values of mango fruits and juice
Protocol: as §2

[8] = test system: mango fruits; assay: Red coloration of mango fruits after preharvest treatment; conditions: Shelly and Kent; 8 mM, 1 or 2 weeks preharvest
Protocol: as §1

[9] = test system: Apple (Starking Delicious) fruits; assay: Preharvest spray, red coloration and TSS in apple
Protocol: FIGS. 27A-27D include vertical bar graphs showing the effect of preharvest spray treatment on red coloration and TSS in Apple (Starking Delicious) fruits. […] In 27D, TSS was evaluated at time 0 (TO), after cold storage (CS), and after time at shelf conditions (e.g., shelf-life (SL)).
as §3

[10] = test system: White (Sifra) potato tubers; assay: Lignin production at the cut (Calcofluor white fluorescence); conditions: 8 mM dip, one-week post-treatment, vs control
Protocol: White (Sifra) potato tubers were dipped in water or 8 mM Phe for 1 min, and dried. The tubers were stored at 20° C. for 2 days. Each tuber was cut (2 cm length, 2 cm deep, 2 mm wide). One week later the curing of the cut was documented.

[11] = test system: grapes (Skarlota); assay: Preharvest spray, red coloration in grapes
Source text: FIG. 28 includes a vertical bar graph showing the effect of preharvest spray treatment on red coloration (represented as index 0-5) in grapes (Skarlota). […] Further, improvement of fruit coloration was also shown in grapes (FIG. 28).

[12] = test system: Mango fruits (Tali and Shelly); assay: ROS accumulation in injured mango fruits; conditions: postharvest 8 mM; injured fruit; vs non-treated injured fruit
Protocol: FIGS. 31A-31C include a fluorescent micrograph (31A) and vertical bar graphs showing that postharvest treatment of Mango fruits (Tali and Shelly) with 8 mM phenylalanine reduces accumulation of reactive oxygen species (ROS) in the peel (31B) and pulp (31C) of treated injured fruits compared to control injured fruit (non-treated). […] (31A) Visualization conducted 20 minutes post induced injury. (31B-31C) ROS quantification 7 days post induced injury.
Further, the inventors have shown that postharvest treatment as disclosed herein reduces ROS (reactive oxygen species) accumulation in fruit injured postharvest (FIG. 31).

[13] = test system: Muscat grapes and Petit Verdot grapes; assay: Sensory analysis and Brix of grapes and juice after preharvest treatment; conditions: for Brix values of grapes and/or juice: 8 mM preharvest, vs control
Protocol: Grapes—Muscat grapes and Petit Verdot grapes were treated with 8 mM phenylalanine for: (i) 1 week or 2 weeks; and (ii) 1 week, 2 weeks, or 3 weeks, before harvest, and their combination, respectively. Sensory analysis by a panel of 20 tasters was performed, for the juice extracted from the fruits, and Brix, and % acidity (calibrated according to citric acid) values were also determined. In the case of muscat grapes, intact fruits were also analyzed (e.g., by the panel, Brix, and % acidity).

[14] = test system: Red (Memphis) and white (Sifra) potato tubers; assay: Cut curing in potato tuber; conditions: 8 mM dip; for weight loss after cutting: statistically significant 14 days post-treatment
Protocol: Red (Memphis) and white (Sifra) potato tubers were dipped in water or 8 mM Phe for 1 min, and dried. The tubers were stored at 20° C. for 2 days. Each tuber was cut (2 cm length, 2 cm deep, 2 mm wide) in 3 spots. One week and 2 weeks later the curing of the cut was evaluated on a scale of 0-3, and the weight loss was measured.
Red (Memphis) and white (Sifra) potato tubers were dipped in water or 8 mM Phe for 1 min, and dried. The tubers were stored at 20° C. for 2 days. Each tuber was cut (2 cm length, 2 cm deep, 2 mm wide). Two weeks later the superficial and internal curing were documented.

[15] = test system: apple fruits (Jonathan); assay: Sensory analysis and Brix of apple fruits and juice after preharvest treatment
Protocol: Apple—Apple trees were treated with: 8 mM phenylalanine 1 week or 2 weeks before harvest; or with 0.2 prohydrojasmon (also known as ‘blush’). Fruits were harvested from the external area of the tree. After harvest, fruits were stored for 3 months at 0° C., wherein sensory analysis by a panel of 20 tasters was performed, for both slices fruit and for juice extracted therefrom. Brix values were also determined.

[16] = preharvest, 0.06% by weight (~3 mM) or more
[17] = 0.12% (~6 mM) preharvest spray, compared to 0.01%
[18] = white Muscat grapes, preharvest application, 2020

With `N[C@@H](Cc1ccccc1)C(=O)O` [phenylalanine] the “level of 3-Carene” value [1] was “significantly elevated”, the “level of Caryophyllene” value [1] was “significantly elevated” and the “level of D-Limonene” value [1] was “significantly elevated”. For the same compound, the “level of Gurjunene” value [1] was “significantly elevated”, the “level of α-Phellandrene” value [1] was “significantly elevated” and the “level of α-Pinene” value [1] was “significantly elevated”. The “level of α-Terpinolene” value [1] was “significantly elevated”, the “formation of red coloration in apple fruits” value [2] was “effectively induce the formation of red coloration” and the “weight loss after scratching” value ([3]; Memphis (red), 8 mM dip) was “reduced”. For the same compound, the “scratch curing (scale of 0-3)” value ([3]; Memphis (red), 7 and 14 days post-treatment) was “significantly improved”, the “color curing, recovery of the red color (scale of 0-3)” value ([3]; Memphis (red), 8 mM dip, 7 and 14 days post-treatment) was “significantly improved” and the “scratch curing (scale of 0-3)” value ([3]; Sifra (white), 7 and 14 days post-treatment) was “significantly improved”. For the same compound, the “weight loss after scratching” value ([3]; Sifra (white), 8 mM dip, statistically significant) was “reduced”, the “quality of juice extracted from mango fruits” value ([4]; Kent) was “quality improvement” and the “quality of juice extracted from mango fruits” value ([4]; Shelly) was “quality improvement”. The “sensory quality of mango fruits (sweeter, less acidic, better aroma, firmness, general appreciation)” value ([4]; tasters' panel, postharvest dip 4-8 mM (FIGS. 1-3) or preharvest application (FIGS. 7, 12), vs control) was “better quality”, the “red coloration (red color surface %, red color intensity)” value ([5]; 0.01% (~0.5 mM) preharvest spray) was “ineffective” and the “TSS (% Brix)” value ([5]; 0.01% preharvest spray) was “no contribution”. The TSS [5, 16] was “substantially improved”, the fruit coloration [5, 16] was “substantially improved” and the “enzymatic browning (oxidation)” value ([6]; Anna apples, 2 weeks or 4 weeks preharvest) was “effective in reducing enzymatic browning”. For the same compound, the “enzymatic browning (oxidation)” value ([6]; Starking apples, 2 weeks preharvest) was “effective in reducing enzymatic browning”, the “Brix values in juice extracted from mango fruits” value ([7]; juice of treated mango fruits vs control (FIGS. 8, 13)) was “greater than the control” and the “Brix values in mango fruits” value ([7]; treated mango fruits vs control (FIGS. 1-3, 7, 12)) was “greater than the control”. For the same compound, the “formation of red coloration in mango fruits” value [8] was “effectively induce the formation of red coloration”, the “TSS (% Brix)” value ([9]; 0.01% preharvest spray) was “comparable to negative control” and the “red coloration (red color surface %, red color intensity)” value ([9]; 0.01% preharvest spray) was “comparable to negative control”. For the same compound, the “TSS (% Brix)” value [9, 17] was “substantially more effective”, the “red coloration (red color surface %, red color intensity)” value [9, 17] was “substantially more effective” and the “lignin production (fluorescent intensity)” value [10] was “increased lignin production”. For the same compound, the red coloration ([11]; 0.01% (~0.5 mM) preharvest) was “ineffective”, the “red color index (0-5)” value [11, 17] was “substantially more effective” and the “ROS accumulation in the peel” value [12] was “substantially less ROS”. The “ROS accumulation in the pulp” value [12] was “substantially less ROS”, the “Brix values of grapes and/or juice” value ([13]; Muscat grapes) was “increased Brix values” and the “Brix values of grapes and/or juice” value ([13]; Petit Verdot grapes) was “increased Brix values”. The “quality of juice extracted from grapes” value ([13]; Petit Verdot grapes, preharvest application, 2020) was “quality improvement”, the flavor of grapes [13, 18] was “flavor improvement” and the “quality of juice extracted from grapes” value [13, 18] was “quality improvement”. The “cut curing (scale of 0-3)” value ([14]; Memphis, 14 days) was “to a less extent”, the “weight loss after cutting” value ([14]; Memphis) was “reduced” and the “internal curing of the cut” value ([14]; Memphis, two weeks later) was “improved compared to control”. The “cut curing (scale of 0-3)” value ([14]; Sifra, 7 and 14 days post-treatment, vs control) was “improved significantly”, the “weight loss after cutting” value ([14]; Sifra) was “reduced” and the “superficial and internal curing of the cut” value ([14]; Sifra, two weeks later) was “improved compared to control”. For the same compound, the “Brix values in apple fruits” value ([15]; 8 mM preharvest, vs control) was “greater than the control”, the “sensory quality of apple fruits and/or juice (sweeter, less acidic, better aroma)” value ([15]; tasters' panel, 8 mM 1 or 2 weeks preharvest, after 3 months at 0° C.) was “better quality” and the “texture of apple fruits” value ([15]; tasters' panel, 8 mM preharvest) was “better texture”.
